Patent US20070026042A1, “System for treating aneurysmal disease” (priority 2005, published 2007)

Experiments:
[1] = Liquid formulations of sirolimus and analogs: drug concentration by liquid chromatography, visual observation; format: physicochemical; details: Vitamin E TPGS, water, ethanol less than two percent
Method: Certain excipients, such as Vitamin E TPGS and BHT may be utilized to enhance the storage stability of sirolimus compounds through their anti-oxidation properties.
The concentrations of each constituent were determined by liquid chromatography and are presented as weight by volume figures.
In another exemplary embodiment, the liquid formulation of sirolimus comprises water and ethanol as co-solvents and Vitamin E TPGS as the excipient. The liquid formulation was created utilizing the following process. Two hundred milligrams of sirolimus and two grams of ethanol were added to a pre-weighed twenty milliliter scintillation vial. The vial was vortexed and sonicated until the sirolimus was completely dissolved. Approximately six hundred milligrams of Vitamin E TPGS was then added to the solution of ethanol and sirolimus. The vial was vortexed again until a clear yellowish solution was obtained. Nitrogen gas was then used to reduce the amount of ethanol in the vial to approximately two hundred twenty-nine milligrams. In a separate vial, three hundred milligrams of Vitamin E TPGS was dissolved in eleven milliliters of purified water while undergoing vortexing. The Vitamin E TPGS and water solution was then added to the first vial containing the sirolimus, Vitamin E TPGS and ethanol. The first vial was then vortexed vigorously and continuously for three minutes. […]

[2] = system: human coronary artery smooth muscle cells; test: Anti-proliferative activity in cultured human coronary artery smooth muscle cells; format: cell-based
Text: The multiple curves represent various concentrations of mycophenolic acid ranging from zero to one thousand nanomolar concentrations.
FIG. […]
The multiple curves represent various concentrations of cladribine ranging from zero to nine hundred nanomolar concentrations.
(§1) The multiple curves represent various concentrations of topotecan ranging from zero to three hundred nanomolar concentrations.
(§2) The multiple curves represent various concentrations of etoposide ranging from zero to eight hundred nanomolar concentrations.
The multiple curves represent various concentrations of Panzem® ranging from zero to 100 micromolar concentrations.

[3] = system: human coronary artery smooth muscle cell; test: MTS cytotoxicity assay; format: cell-based; details: 6.6 nanomolar to 30,000.00 nanomolar, FIG. 69
Text: Typically, a control is utilized to determine baseline toxicity.

[4] = Cell viability assay (cytotoxicity); format: cell-based
Text: as §1, §2

tumor cell lines = details: Woo et al., J. Med Chem 2002; cited from earlier work
[5] = system: infrarenal abdominal aorta; test: Elastase-induced abdominal aortic aneurysm model in rats; format: in vivo, Wistar rats; details: for relative efficacy in suppressing aneurysmal dilatation compared to Dox at the same dose / inhibition of aortic dilatation induced by elastase perfusion: 15 mg/kg/day; for inhibition of aortic dilatation induced by elastase perfusion: vs saline, Student's t-test
Text: Male Wistar rats (350-400 g) were subjected to perfusion of an isolated segment of the infrarenal abdominal aorta with 50 units of porcine pancreatic elastase, using the method described by Anidjar. et al. (Anidjar, S, Salzmann, J L, Generic, D, Lagneau, P, Camilleri, J P, and Michel, J B, “Elastase induced experimental aneurysms in rats,” Circulation 82:973-981 (1990); Halpern et al. (Halpern, V J. Liao, Nackman, G B, Gandhi, R H, Irizarry, E, Scholes, J V, Ramey, W G, and Tilson, M D, “The elastase infusion model of experimental aortic aneurysms: Synchrony of induction of endogenous protinases with matrix destruction and inflammatory cell response,” J. Vasc. Surg. […] Surg 23:336-346 (1996)). This method is an accepted model for experimental induction of abdominal aortic aneurysms. The animals (n=6 rats in each group) were then treated with twice-daily subcutaneous injections of either saline vehicle (control), or various doses of doxycycline (Dox) or one of four different, non-antibiotic, chemically-modified tetracyclines (CMTs; CollaGenex, Inc., Newtown, Pa.). Aortic diameter (AD) was measured with microcalipers before and after elastase perfusion, and just prior to sacrifice on day 7. Abdominal aortic aneurysms were defined as an increase in final AD to at least twice that measured before perfusion (≥ 100% increase). Aortic tissues from two animals in each group were perfusion-fixed with 10% neutral buffered formalin, embedded in paraffin, and stained with Verhoeff-van Geisen (WG) for elastin. Tissues from the remaining animals were extracted, normalized to total protein, and analyzed by gelatin substrate zymography as described (Thompson et al. 1995; Halpern et al. 1994; Petrinec 1996).
For saline-treated control animals, mean AD increased by 125.±.18%, and 5 of the 6 (83%) of the animals had abdominal aortic aneurysms as defined.

[6] = non-synchronized cells, two percent fetal bovine serum
[7] = synchronized cells, two percent fetal bovine serum

CO[C@H]1C[C@@H]2CC[C@@H](C)[C@@](O)(O2)C(=O)C(=O)N2CCCC[C@H]2C(=O)O[C@H]([C@H](C)C[C@@H]2CC[C@@H](OC(=O)C(C)(CO)CO)[C@H](OC)C2)CC(=O)[C@H](C)/C=C(\C)[C@@H](O)[C@@H](OC)C(=O)[C@H](C)C[C@H](C)/C=C/C=C/C=C/1C [CCI-779]
concentration of CCI-779 in the final solution (HPLC) [1]: 15000 µg/mL

Nc1nc(Cl)nc2c1ncn2[C@H]1C[C@H](O)[C@@H](CO)O1 [Cladribine, 2-chlorodeoxyadenosine]
inhibition of human coronary artery smooth muscle cell proliferation ([2]; non-synchronized cells stimulated with two percent fetal bovine serum, FIG. 58): completely inhibits
effect of addition to rapamycin-treated cells on the anti-proliferative rapamycin dose response curve [2, 6]: leftward and upward shift

COc1cc2c(cc1O)CC[C@@H]1[C@@H]2CC[C@]2(C)[C@@H](O)CC[C@@H]12 [Panzem®, 2-methoxyestradiol]
cell survival in MTS assay [3]: do not reduce human coronary artery smooth muscle cell survival
effect of addition to rapamycin-treated cells on the anti-proliferative rapamycin dose response curve [2, 7]: increases the percent of inhibition of rapamycin alone
inhibition of human coronary artery smooth muscle cell proliferation in vitro ([2]; synchronized cells, two percent fetal bovine serum, FIG. 66): extremely effective inhibitor

CC[C@@]1(O)C(=O)OCc2c1cc1n(c2=O)Cc2cc3c(CN(C)C)c(O)ccc3nc2-1 [topotecan]
effect of addition to rapamycin-treated cells on the anti-proliferative rapamycin dose response curve [2, 7]: leftward and upward shift
cytotoxicity in cell viability assay ([4]; concentrations up to one micromolar): non-cytotoxic

CC(/C=C/C(=O)NO)=C\[C@@H](C)C(=O)c1ccc(N(C)C)cc1 [trichostatin A]
IC50 ([2]; in vitro cell culture studies): ~6 nM
inhibition of human coronary artery smooth muscle cell proliferation ([2]; in vitro cell culture studies, FIG. 51): completely inhibit
anti-proliferative IC50's (tumor cell lines): low nM range

COc1cc([C@@H]2c3cc4c(cc3[C@@H](O[C@@H]3O[C@@H]5CO[C@@H](C)O[C@H]5[C@H](O)[C@H]3O)[C@H]3COC(=O)[C@H]23)OCO4)cc(OC)c1O [etoposide]
effect of addition to rapamycin-treated cells on the anti-proliferative rapamycin dose response curve [2, 6]: leftward and upward shift
cytotoxicity in cell viability assay ([4]; concentrations up to ten micromolar): non-cytotoxic

CC1(O)c2c(Cl)ccc(O)c2C(=O)C2=C(O)C3(O)C(=O)C(C(N)=O)=C(O)CC3CC21 (stereo not drawn) [CMT-4, 4-dedimethylamino-7-chlorotetra-cycline]
relative efficacy in suppressing aneurysmal dilatation compared to Dox at the same dose [5]: 75%
inhibition of aortic dilatation induced by elastase perfusion [5]: did not reach statistical significance

COc1c(C)c2c(c(O)c1C/C=C(\C)CCC(=O)O)C(=O)OC2 [mycophenolic acid]
effect of addition to rapamycin-treated cells on the anti-proliferative rapamycin dose response curve [2, 6]: leftward and upward shift

C[C@H]1c2cccc(O)c2C(O)=C2C(=O)[C@]3(O)C(O)=C(C(N)=O)C(=O)C[C@@H]3[C@@H](O)[C@@H]21 [CMT-8, 6-α-deoxy-5-hydroxy-4-dedimethylaminotetracycline]
relative efficacy in suppressing aneurysmal dilatation compared to Dox at the same dose [5]: 105%
inhibition of aortic dilatation induced by elastase perfusion [5]: statistically significant

C[C@H]1c2cccc(O)c2C(=O)C2=C(O)[C@]3(O)C(=O)C(C(N)=O)=C(O)[C@@H](N(C)C)[C@@H]3[C@@H](O)[C@@H]21 [Dox, doxycycline]
aortic dilatation (mean increase in aortic diameter) ([5]; 60 mg/kg/day, twice-daily subcutaneous injections, day 7, saline control 125.±.18%): 61.±.7%
dose of maximal inhibition of aortic dilatation ([5]; dose-dependent effect, FIG. 76): about 12.5 mg/kg/day

4-dedimethylamino-12a-deoxytetracycline [CMT-7]
relative efficacy in suppressing aneurysmal dilatation compared to Dox at the same dose [5]: 92%
inhibition of aortic dilatation induced by elastase perfusion [5]: statistically significant

NC(=O)C1=C(O)C[C@@H]2C[C@@H]3Cc4cccc(O)c4C(=O)C3=C(O)[C@]2(O)C1=O [CMT-3, 6-demethyl-6-deoxy 4-dedimethylaminotetracycline]
relative efficacy in suppressing aneurysmal dilatation compared to Dox at the same dose [5]: 92%
inhibition of aortic dilatation induced by elastase perfusion [5]: statistically significant
